Source: US20170305922A1, “CARM1 INHIBITORS AND USES THEREOF” (Epizyme, Inc., priority 2014, published 2017)

Molecular target: T1, Human CARM1 (PRMT4) (Homo sapiens, UniProt Q86X55)
T1 construct: Flag-CARM1-His was eluted with 200 ug/ml FLAG peptide in buffer A; made in house; host or cells: HEK 293F cells infected with recombinant baculovirus (pFastBacMam)
T1 sequence (Q86X55 1-585 isoform Q86X55-1): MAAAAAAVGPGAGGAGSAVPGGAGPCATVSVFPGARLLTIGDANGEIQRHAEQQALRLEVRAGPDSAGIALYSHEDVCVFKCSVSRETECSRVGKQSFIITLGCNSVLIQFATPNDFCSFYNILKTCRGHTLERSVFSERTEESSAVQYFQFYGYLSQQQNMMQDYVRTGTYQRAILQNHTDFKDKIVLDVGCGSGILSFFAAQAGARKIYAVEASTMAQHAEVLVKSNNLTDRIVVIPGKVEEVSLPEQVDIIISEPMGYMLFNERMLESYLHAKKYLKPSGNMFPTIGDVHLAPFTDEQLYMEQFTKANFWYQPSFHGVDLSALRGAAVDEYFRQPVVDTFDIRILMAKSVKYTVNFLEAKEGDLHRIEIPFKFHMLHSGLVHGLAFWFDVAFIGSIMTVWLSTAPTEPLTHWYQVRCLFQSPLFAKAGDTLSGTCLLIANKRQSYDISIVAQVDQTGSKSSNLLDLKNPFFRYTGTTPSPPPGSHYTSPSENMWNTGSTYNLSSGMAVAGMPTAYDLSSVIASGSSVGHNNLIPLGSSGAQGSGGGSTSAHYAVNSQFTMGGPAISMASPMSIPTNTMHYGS
Assay: CARM1 enzyme assay on peptide substrates (3H-SAM Flashplate)
Settings: Biochemical assay; CARM1 0.25 nM, 3H-SAM 30 nM, peptide 250 nM; read-out: Biochem IC50
From the text: S-adenosylmethionine (SAM), S-adenosylhomocysteine (SAH), bicine, Tween20, dimethylsulfoxide (DMSO), bovine skin gelatin (BSG), sodium butyrate and Tris(2-carboxyethyl)phosphine hydrochloride solution (TCEP) were purchased from Sigma-Aldrich at the highest level of purity possible. ^3H-SAM was purchase from American Radiolabeled Chemicals with a specific activity of 80 Ci/mmol. 384-well streptavidin Flashplates were purchased from PerkinElmer.
Peptide representative of human histone H3 residues 16-30 was synthesized with an N-terminal linker-affinity tag motif and a C-terminal amide cap by 21st Century Biochemicals. […] The sequence was Biot-Ahx-[…]-amide and contained a monomethylated arginine at position 26 (SEQ ID NO.:1).
The gene sequence encoding isoform1 containing a deletion of amino acids 539-561 was amplified subsequently and subcloned into pFastBacMam (Viva Biotech).
Recombinant baculovirus were generated according to Bac-to-Bac kit instructions (Life Technologies). Protein over-expression was accomplished by infecting exponentially growing HEK 293F cell culture at 1.3×10^6 cell/ml with virus (MOI=10) in the presence of 8 mM sodium butyrate. Infections were carried out at 37° C. for 48 hours, harvested by centrifugation, and stored at −80° C. for purification.
Column was washed with 500 mM NaCl in buffer A and Flag-CARM1-His was eluted with 200 ug/ml FLAG peptide in buffer A. Pooled fractions were dialyzed in 20 mM Tris, 150 mM NaCl, 5% glycerol and 1 mM DTT, pH 7.8.
The assays were all performed in a buffer consisting of 20 mM Bicine (pH=7.6), 1 mM TCEP, 0.005% BSG, and 0.002% Tween 20, prepared on the day of use. Compounds in 100% DMSO (1 ul) were spotted into a polypropylene 384-well V-bottom plates (Greiner) using a Platemate Plus outfitted with a 384-channel head (Thermo Scientific). DMSO (1 ul) was added to Columns 11, 12, 23, 24, rows A-H for the maximum signal control and 1 ul of SAH, a known product and inhibitor of CARM1, was added to columns 11, 12, 23, 24, rows I-P for the minimum signal control. A cocktail (40 ul) containing the CARM1 enzyme was added by Multidrop Combi (Thermo-Fisher). The compounds were allowed to incubate with CARM1 for 30 min at room temperature, then a cocktail (10 ul) containing ^3H-SAM and peptide was added to initiate the reaction (final volume=51 ul). The final concentrations of the components were as follows: CARM1 was 0.25 nM, ^3H-SAM was 30 nM, peptide was 250 nM, SAH in the minimum signal control wells was 1 mM, and the DMSO concentration was 2%. The assays were stopped by the addition of non-radiolabeled SAM (10 ul) to a final concentration of 300 uM, which dilutes the ^3H-SAM to a level where its incorporation into the peptide substrate is no longer detectable. 50 ul of the reaction in the 384-well polypropylene plate was then transferred to a 384-well Flashplate and the biotinylated peptides were allowed to bind to the streptavidin surface for at least 1 hour before being washed once with 0.1% Tween20 in a Biotek ELx405 plate washer. The plates were then read in a PerkinElmer TopCount plate reader to measure the quantity of ^3H-labeled peptide bound to the Flashplate surface, measured as disintegrations per minute (dpm) or alternatively, referred to as counts per minute (cpm).
where dpm=disintegrations per minute, cmpd=signal in assay well, and min and max are the respective minimum and maximum signal controls.
where top and bottom are the normally allowed to float, but may be fixed at 100 or 0 respectively in a 3-parameter fit. The Hill Coefficient normally allowed to float but may also be fixed at 1 in a 3-parameter fit. Y is the % inhibition and X is the compound concentration.

Row | IC50 | SMILES
1 | 1.4 nM | CNC[C@@H](O)COc1ccc(Cl)c(-c2nc(-c3c(C)noc3C)c(C)c(N3C[C@H]4CN(C(=O)C(F)(F)F)C[C@H]4C3)n2)c1 [Example 31]
2 | 7 nM | CNC[C@@H](O)COc1ccc(Cl)c(-c2nc(-c3c(C)noc3C)c(C)c(N3CC4(CCN(CC(F)F)C4)C3)n2)c1 [Example 32]
3 | 7.2 nM | CNC[C@@H](O)COc1ccc(Cl)c(-c2nc(-c3c(C)noc3C)c(C)c(N3CC4(CCN(C(=O)N(C)C)CC4)C3)n2)c1 [Example 33]
4 | 5.1 nM | CNC[C@@H](O)COc1ccc(Cl)c(-c2nc(-c3c(C)noc3C)c(C)c(N3Cc4c(n(C)c(=O)n(C)c4=O)C3C)n2)c1 (stereo partly shown) [Example 34]
5 | 3.7 nM | CNC[C@@H](O)COc1ccc(Cl)c(-c2nc(-c3c(C)noc3C)c(C)c(N3Cc4c(n(C)c(=O)n(C)c4=O)C3)n2)c1 [Example 35]
6 | 2.4 nM | CNC[C@@H](O)COc1ccc(Cl)c(-c2nc(-c3c(C)noc3C)c(C)c(N3Cc4cnc(C5CC5)cc4C3)n2)c1 [Example 36]
7 | 2.6 nM | CCc1cc2c(cn1)CN(c1nc(-c3cc(OC[C@H](O)CNC)ccc3Cl)nc(-c3c(C)noc3C)c1C)C2 [Example 37]
8 | 5.7 nM | CNC[C@@H](O)COc1ccc(F)c(-c2nc(-c3c(C)noc3C)c(C)c(N3CC4(CCN(CC(F)F)C4)C3)n2)c1 [Example 38]
9 | 2 nM | CNC[C@@H](O)COc1ccc(Cl)c(-c2nc(-c3c(C)noc3C)c(C)c(N3Cc4ccc(Cl)nc4C3)n2)c1 [Example 39]
10 | 2.8 nM | CNC[C@@H](O)COc1ccc(Cl)c(-c2nc(-c3c(C)noc3C)c(C)c(N3Cc4nc5n(c(=O)c4C3)CCC5)n2)c1 [Example 40]
11 | 8.7 nM | CNC[C@@H](O)COc1ccc(Cl)c(-c2nc(-c3c(C)noc3C)c(C)c(N3CC4(CN(C(=O)N(C)C)C4)C3)n2)c1 [Example 41]

Tested on: asymmetric di-methyl PABP1 in RKO cells
Assay: RKO methylation assay: In Cell Western (ICW) for asymmetric di-methyl PABP1 (PABP1me2a)
Settings: Homo sapiens, RKO, 48 h, Cellular-based (PABP1me2a) ICW (In Cell Western) assay
From the text: RKO adherent cells were purchased from ATCC (American Type Culture Collection), Manassas, Va., USA. DMEM/Glutamax medium, penicillin-streptomycin, heat inactivated fetal bovine serum, 0.05% trypsin and D-PBS were purchased from Life Technologies, Grand Island, N.Y., USA. Odyssey blocking buffer, 800CW goat anti-rabbit IgG (H+L) antibody, and Licor Odyssey infrared scanner were purchased from Licor Biosciences, Lincoln, Nebr., USA. Asymmetric di-methyl PABP1 antibody was purchased from Cell Signaling Technology, Danvers, Mass., USA. Methanol was purchased from VWR, Franklin, Mass., USA. 10% Tween 20 was purchased from KPL, Inc., Gaithersburg, Md., USA. Paraformaldehyde (PFA) was purchased from EM Sciences. DRAQ5 was purchased from Biostatus Limited, Leicestershire, UK.
RKO adherent cells were maintained in growth medium (DMEM/Glutamax medium supplemented with 10% v/v heat inactivated fetal bovine serum and 100 units/mL penicillin-streptomycin) and cultured at 37° C. under 5% CO2.
Cell treatment, In Cell Western (ICW) for detection of asymmetric di-methyl PABP1 and DNA content: RKO cells were seeded in assay medium at a concentration of 30,000 cells per mL to a poly-D-lysine coated 384 well culture plate (BD Biosciences 356697) with 50 μL per well. Compound (100 nL) from a 96-well source plate was added directly to 384 well cell plate. Plates were incubated at 37° C., 5% CO2 for 48 hours. After two days of incubation, plates were brought to room temperature outside of the incubator for ten minutes and blotted on paper towels to remove cell media. Cells were fixed for 20 minutes at room temperature by adding 50 ul of 8% PFA followed by aspiration of supernatant with the Biotek EL406 plate washer. Cells were then permeabilized by addition of 50 μL of ice cold 100% methanol directly to each well and incubated for 30 min at room temperature. After 30 min, plates were transferred to a Biotek EL406 plate washer and washed 2 times with 100 μL per well of wash buffer (1×PBS). Next 60 μL per well of Odyssey blocking buffer (Odyssey Buffer with 0.1% Tween 20 (v/v)) were added to each plate and incubated 1 hour at room temperature. Blocking buffer was removed and 20 μL per well of primary antibody was added (asymmetric-methyl PABP1) diluted 1:400 in Odyssey buffer with 0.1% Tween 20 (v/v)) and plates were incubated overnight (16 hours) at 4° C. Plates were washed 5 times with 100 μL per well of wash buffer. Next 20 μL per well of secondary antibody was added (1:800 800CW goat anti-rabbit IgG (H+L) antibody, 1:2000 DRAQ5 in Odyssey buffer with 0.1% Tween 20 (v/v)) and incubated for 1 hour at room temperature. The plates were washed 5 times with 100 μL per well wash buffer then 2 times with 100 μL per well of water. Plates were allowed to dry at room temperature then imaged on the Licor Odyssey machine which measures integrated intensity at 700 nm and 800 nm wavelengths. Both 700 and 800 channels were scanned.
First, the ratio for each well was determined by:
Each plate included fourteen control wells of DMSO only treatment (minimum inhibition) as well as fourteen control wells for maximum inhibition treated with 20 μM of a reference compound. The average of the ratio values for each control type was calculated and used to determine the percent […] for each test well in the plate. Reference compound was serially diluted three-fold in DMSO for a total of nine test concentrations, beginning at 20 μM.
Percent inhibition was determined and IC50 curves were generated using triplicate wells per concentration of compound.

Row | IC50 | SMILES
12 | 2150 nM | CNC[C@@H](O)COc1ccc(Cl)c(-c2nc(-c3c(C)noc3C)c(C)c(N3C[C@H]4CN(C(=O)C(F)(F)F)C[C@H]4C3)n2)c1 [Example 31]
13 | 53 nM | CNC[C@@H](O)COc1ccc(Cl)c(-c2nc(-c3c(C)noc3C)c(C)c(N3CC4(CCN(CC(F)F)C4)C3)n2)c1 [Example 32]
14 | 83 nM | CNC[C@@H](O)COc1ccc(Cl)c(-c2nc(-c3c(C)noc3C)c(C)c(N3CC4(CCN(C(=O)N(C)C)CC4)C3)n2)c1 [Example 33]
15 | 120 nM | CNC[C@@H](O)COc1ccc(Cl)c(-c2nc(-c3c(C)noc3C)c(C)c(N3Cc4c(n(C)c(=O)n(C)c4=O)C3C)n2)c1 (stereo partly shown) [Example 34]
16 | 412 nM | CNC[C@@H](O)COc1ccc(Cl)c(-c2nc(-c3c(C)noc3C)c(C)c(N3Cc4c(n(C)c(=O)n(C)c4=O)C3)n2)c1 [Example 35]
17 | 49 nM | CNC[C@@H](O)COc1ccc(Cl)c(-c2nc(-c3c(C)noc3C)c(C)c(N3Cc4cnc(C5CC5)cc4C3)n2)c1 [Example 36]
18 | 37 nM | CCc1cc2c(cn1)CN(c1nc(-c3cc(OC[C@H](O)CNC)ccc3Cl)nc(-c3c(C)noc3C)c1C)C2 [Example 37]
19 | 76 nM | CNC[C@@H](O)COc1ccc(F)c(-c2nc(-c3c(C)noc3C)c(C)c(N3CC4(CCN(CC(F)F)C4)C3)n2)c1 [Example 38]
20 | 32 nM | CNC[C@@H](O)COc1ccc(Cl)c(-c2nc(-c3c(C)noc3C)c(C)c(N3Cc4ccc(Cl)nc4C3)n2)c1 [Example 39]
21 | 391 nM | CNC[C@@H](O)COc1ccc(Cl)c(-c2nc(-c3c(C)noc3C)c(C)c(N3Cc4nc5n(c(=O)c4C3)CCC5)n2)c1 [Example 40]
22 | 546 nM | CNC[C@@H](O)COc1ccc(Cl)c(-c2nc(-c3c(C)noc3C)c(C)c(N3CC4(CN(C(=O)N(C)C)C4)C3)n2)c1 [Example 41]
